According to a melting point compilation (Tetko et al.; mined from patent text by program, amines drawn as free bases though some values may be those of a salt):

Compound | melting point
CCCCCCCCCCCCCCCCCCNC(=O)OCC(CNS(=O)(=O)CCCI)NC(=O)OC (stereo not given) | 97 °C
CCCCOCCOc1ccc(-c2ccc3c(c2)C=C(C(=O)Nc2ccc(SCc4nncn4CC(C)C)cc2)CCN3CCC)cc1 | 130 to 132 °C
Cc1oc(COc2ccccc2/C=C/CO)nc1-c1ccccc1 | 128 to 129 °C
CC(C)c1ccc(-c2cncc(-c3cccc(C(=O)O)c3)c2)cc1 | 155 to 156 °C
CC(C)(C)OC(=O)OC(=O)c1ccc(NNC(N)=S)cc1 | 161 to 163 °C
CC1(C)CC(=C2CC(C)(C)NC(C)(C)C2)CC(C)(C)N1 | 144 to 145 °C
CC(C)n1c(-c2ccccc2)nc(-c2ccc(F)cc2)c1C=O | 130 to 134 °C
Oc1cc2c(cc1O)OCC(c1cccc(F)c1)C2 (stereo not given) | 121 to 123 °C
CCOC(=O)C(c1ccc(N)cc1)N(C)C(C)C (stereo not given) | 70 to 71 °C
CNC(=O)c1sc(C(C)(C)C)cc1NC(=O)Nc1ccc(C(C)C)cc1 | 113 to 120 °C
COc1ccc(CN(C)CCCc2ccc(NC(=O)c3cccc4c(=O)c5cccc(F)c5[nH]c34)cc2)cc1OC | 158 °C
CN1CCC23c4c5ccc(O)c4OC2C(OC2OC(C(=O)O)C(O)C(O)C2O)C=CC3C1C5 (stereo not given) | 240 to 243 °C
NS(=O)(=O)NCC=Cc1ccccc1 | 118 °C
Cc1ccccc1C1c2cc(NC(=O)CC(C)(C)C)c(C)c(C)c2OC1(C)C (stereo not given) | 161 to 162 °C
CCCCCCCCCCCCCC(O)CNCCCCCCNCC(O)CCCCCCCCCCCCC (stereo not given) | 117 to 124 °C
C/C=C/c1ccc2c(NCc3ccc(NC(=O)c4ccc(F)cc4)cc3)nc(N(C)C)nc2c1 | 246 °C
CC12CC3OC3CC1CCC1C2CCC2(C)C(O)C(N3CCCCC3)CC12 (stereo not given) | 153 to 165 °C
Clc1ccc2c(c1)C(c1ccccc1Cl)NCc1cncnc1-2 (stereo not given) | 169 to 170 °C
COC(=O)c1nc2n(c1C)-c1ccc(Cl)cc1C(c1ccccc1F)=NC2 | 137 to 138 °C

Other lines, results leading:

melting point | Compound
206 to 208 °C | O=C(CCN1CCN(c2ccccc2)CC1)c1ccc2c(c1)Cc1cc(C(=O)CCN3CCN(c4ccccc4)CC3)ccc1O2
249 to 250 °C | CC1(C)Oc2ccc(C#N)cc2C(Oc2ccnc(O)c2)C1O (stereo not given)
190 to 191 °C | O=C(O)C1=Cc2c(Cl)cc(Cl)cc2OC1C(F)(F)F (stereo not given)
229 to 231 °C | COc1ccccc1[C@H](c1cccc2ccccc12)[C@@](C)(C#N)C(=O)N1CC=C(c2c[nH]c3ccccc23)CC1
50 °C | CCC(O)C1CCNCC1 (stereo not given)
217 to 218 °C | CNc1nc(-c2ccc(Cl)cc2)c(CCC(=O)O)o1
234 to 237 °C | CC(C)(CNC=O)c1ccc2nc(C3CCNCC3)[nH]c2c1
218 to 219 °C | COc1ccc(-c2ccc(C=CC(=O)O)s2)cc1C(C)(C)C
88 to 89 °C | CC[C@H]1C(=O)N([Si](C)(C)C(C)(C)C)[C@H]1C(=O)C=[N+]=[N-]
138 °C | CCSC(=O)n1c(=NC(=O)N(C)C)sc2ccccc21
71 to 73 °C | O=C(O)CSC12CC3CC(CC(C3)C1)C2
< 40 °C | CC(=O)O[C@@H]1CC(c2ccccc2)(c2ccccc2)[C@@H]2CN(Cc3ccccc3)C[C@@H]2C1=O (racemic)
78 °C | Cc1cccc(C2CCCN2S(=O)(=O)c2ccc(Cl)cc2)c1 (racemic)
225 to 228 °C | CCn1cc(C(=O)O)c(=O)c2cc(F)c(N3CCN(CCO)CC3)c(F)c21
221 to 223 °C | CC(=O)Nc1ccc(C(=O)O)c(O)c1
113 to 114 °C | Cc1cc([N+](=O)[O-])ccc1N1CCOCC1=O
140 to 142 °C | S=c1n(CCc2ccccc2)ccn1C1CCc2ccccc2C1 (stereo not given)
140 °C | CNc1ncnc2c1ncn2C1OC(CO)C(O)C1F (stereo not given)
> 200 °C | O=C(O)c1cc(Br)c(Cl)s1
86 to 88 °C | COc1c(Nc2ncc3ccc(-c4ccccc4N(C)S(C)(=O)=O)n3n2)ccc(N2CCN(C[C@H](C)O)CC2)c1F
65 to 68 °C | CCOC(=O)C1C2OC3COC(C)(C)OC3C(OC)C21 (stereo not given)
